Patent US6683184B2, “Piperazine derivatives and process for the preparation thereof” (Samjin Pharmaceutical Co., Ltd., priority 1999, dated 2004)
Values after ≈ are worked out from the molar mass of the structure shown.

Columns and labels:
Type in all cases: cell-based
SKMEL-2 (human melanoma) = assay: In vitro antitumor effect against human tumor cell lines, SRB assay, SKMEL-2; conditions: SK-MEL-2 cells, 48 hours; for IC50: Homo sapiens, read-out: ED50 SK-MEL-2
Method: (§1) In vitro antitumor effect against human tumor cell lines.
(§2) a. Human solid tumor cell lines, A549(non-small lung cell), SKMEL-2(melanoma), HCT-15(colon), SKOV-3(ovarian), XF-498(CNS) were cultured at 37° C. in 5% CO2 incubators using RPMI 1640 media containing 10% FBS, while they were transfer-cultured successively once or twice per week. Cell cultures were dissolved in a solution of 0.25% trypsin and 3 mM CDTA PBS(−) and then cells were separated from media which the cells were sticked on.
(§3) b. 5×10^3˜2×10^4 cells were added into each well of 96-well plate and cultured in 5% CO2 incubator, at 37° C., for 24 hours.
(§4) c. Each sample drug was dissolved in a little DMSO and diluted with the used medium to a prescribed concentration for experiments, wherein the final concentration of DMSO was controlled below 0.5%.
(§5) d. Medium of each well cultured for 24 hours as above b. was removed by aspiration. Each 200 μl of drug samples prepared in c. was added into each well and the wells were cultured for 48 hours. Tz(time zero) plates were collected at the point of time drugs were added.
(§6) e. According to the SRB assay method, cell fixing with TCA, staining with 0.4% SRB solution, washing with 1% acetic acid and elution of dye with 10 mM Tris solution were carried out on Tz plates and culture-ended plates, whereby OD values were measured at 520 nm.
(§7) a. Time zero(Tz) value was determined with measuring the SRB protein amounts of the Tz plates collected at the point of time drugs were added.
(§8) b. Control value(C) was determined with the OD values of wells untreated with a drug.
(§9) c. Drug-treated test value(T) was determined with the OD values of drug-treated wells.
(§10) d. Effects of drugs were estimated with growth stimulation, net growth inhibition, net killing etc., being calculated from Tz, C and T.
(§11) e. If T≧Tz, cellular response function was calculated by 100×(T−Tz)/(C−Tz), and if T<Tz, by 100×(T−Tz)/Tz.

XF 498 (human CNS) = assay: In vitro antitumor effect against human tumor cell lines, SRB assay, XF 498; conditions: 48 hours; for IC50: Homo sapiens, XF498, XF-498 cells, read-out: ED50 XF-498; for ED50 XF-498: XF-498 cells
Method: as §1, §2, §3, §4, §5, §6, §7, §8, §9, §10, §11

[1] = tested on: A549 (human non-small lung cell); assay: In vitro antitumor effect against human tumor cell lines, SRB assay, A549; conditions: A549 cells, 48 hours; for IC50: Homo sapiens, read-out: ED50 A 549
Method: as §1, §2, §3, §4, §5, §6, §7, §8, §9, §10, §11

SKOV-3 (human ovarian) = assay: In vitro antitumor effect against human tumor cell lines, SRB assay, SKOV-3; conditions: SK-OV-3 cells, 48 hours; for IC50: Homo sapiens, read-out: ED50 SK-OV-3
Method: as §1, §2, §3, §4, §5, §6, §7, §8, §9, §10, §11

HCT-15 (human colon) = assay: In vitro antitumor effect against human tumor cell lines, SRB assay, HCT-15; conditions: HCT 15 cells, 48 hours; for IC50: Homo sapiens, read-out: ED50 HCT 15
Method: as §1, §2, §3, §4, §5, §6, §7, §8, §9, §10, §11

| Compound | IC50 (SKMEL-2 (human melanoma)) [ng/mL] | IC50 (XF 498 (human CNS)) [ng/mL] | IC50 [1] [ng/mL] | IC50 (SKOV-3 (human ovarian)) [ng/mL] | IC50 (HCT-15 (human colon)) [ng/mL] | ED50 SK-MEL-2 (SKMEL-2 (human melanoma)) [ng/mL] | ED50 XF-498 (XF 498 (human CNS)) [ng/mL] | ED50 A 549 [1] [ng/mL] | ED50 SK-OV-3 (SKOV-3 (human ovarian)) [ng/mL] | ED50 HCT 15 (HCT-15 (human colon)) [ng/mL] |
| --- | --- | --- | --- | --- | --- | --- | --- | --- | --- | --- |
| COc1nc2ccccc2nc1N(C)C(=O)N1CCN(c2cc(C)cc(C)c2)CC1 [Example 55, 1-[(2-Methoxyquinoxalin-3-yl)N-methylaminocarbonyl]-4-(3,5-dimethylphenyl)piperazine] | 220 (≈ 0.543 µM) | 410 (≈ 1.01 µM) | 340 (≈ 0.838 µM) | 490 (≈ 1.21 µM) | 330 (≈ 0.814 µM) | – | – | – | – | – |
| COc1cc2ccccc2cc1NC(=O)N1CCN(c2cc(Cl)cc(Cl)c2)CC1 [Example 89, 1-[(2-Methoxynaphth-3-yl)aminocarbonyl]-4-(3,5-dichlorophenyl)piperazine] | 30 (≈ 0.0697 µM) | 40 (≈ 0.093 µM) | 40 (≈ 0.093 µM) | 200 (≈ 0.465 µM) | 50 (≈ 0.116 µM) | – | – | – | – | – |
| CCc1ccccc1N1CCN(C(=O)Nc2nc3ccccc3nc2OC)CC1 [Example 39, 1-[(2-Methoxyquinoxalin-3-yl)aminocarbonyl]-4-(2-ethylphenyl)piperazine] | 70 (≈ 0.179 µM) | 140 (≈ 0.358 µM) | 100 (≈ 0.255 µM) | 330 (≈ 0.843 µM) | 60 (≈ 0.153 µM) | – | – | – | – | – |
| N.N.[Cl][Pt][Cl] [Cisplatin, reference compound] | – | – | – | – | – | 870 | 770 | 910 | 1320 | 3170 |
| CCc1nc(OC)c(N=C(NO)N2CCN(c3cc(OC)cc(OC)c3)CC2)cc1C(=O)OC [Example 159, N-Hydroxy-N′-(6-ethyl-5-methoxycarbonyl-2-methoxypyridin-3-yl)-[4-(3,5-dimethoxyphenyl)piperazin-1-yl]carboxyimidamide] | – | – | – | – | – | 2 (≈ 0.00422 µM) | 6 (≈ 0.0127 µM) | 29 (≈ 0.0612 µM) | 10 (≈ 0.0211 µM) | 0.6 (≈ 0.00127 µM) |
| COc1nc2ccccc2cc1N=C(NO)N1CCN(c2cc(C)cc(C)c2)CC1 [Example 173, N-Hydroxy-N′-(2-methoxyquinolin-3-yl)-[4-(3,5-dimethylphenyl)-piperazin-1-yl]carboxyimidamide] | – | – | – | – | – | 150 (≈ 0.37 µM) | 210 (≈ 0.518 µM) | 400 (≈ 0.986 µM) | 860 (≈ 2.12 µM) | 180 (≈ 0.444 µM) |
| COc1nc2ccccc2nc1NC(=O)N1CCN(c2cc(F)cc(F)c2)CC1 [Example 46, 1-[(2-Methoxyquinoxalin-3-yl)aminocarbonyl]-4-(3,5-difluo-rophenyl)piperazine] | – | – | – | – | – | 3 (≈ 0.00751 µM) | 1 (≈ 0.0025 µM) | 2 (≈ 0.00501 µM) | 7 (≈ 0.0175 µM) | 2 (≈ 0.00501 µM) |
| COc1nc(C)c(CO)cc1N=C(NO)N1CCN(c2cc(F)cc(F)c2)CC1 [Example 127, N-Hydroxy-N′-(5-hydroxymethyl-2-methoxy-6-methylpyridin-3-yl)-[4-(3,5-difluorophenyl)piperazin-1-yl]carboxyimidamide] | – | – | – | – | – | 5 (≈ 0.0123 µM) | 6 (≈ 0.0147 µM) | 13 (≈ 0.0319 µM) | 11 (≈ 0.027 µM) | 2 (≈ 0.00491 µM) |
| COc1nc(C)c(C)cc1N=C(NO)N1CCN(c2cc(CO)cc(CO)c2)CC1 [Example 107, N-Hydroxy-N′-(5,6-dimethyl-2-methoxypyridin-3-yl)-{4-[3,5-bis-(hydroxymethyl)phenyl]piperazin-1-yl}carboxyimidamide] | – | – | – | – | – | 5 (≈ 0.012 µM) | 8 (≈ 0.0193 µM) | 32 (≈ 0.077 µM) | 13 (≈ 0.0313 µM) | 9 (≈ 0.0217 µM) |
| COC(=O)c1cc(N=C(NO)N2CCN(c3cc(OC)cc(OC)c3)CC2)c(OC)nc1C [Example 118, N-Hydroxy-N′-(5-methoxycarbonyl-2-methoxy-6-methylpyridin-3-yl)-[4-(3,5-dimethoxyphenyl)piperazin-1-yl]carboxyimidamide] | – | – | – | – | – | 19 (≈ 0.0413 µM) | 17 (≈ 0.037 µM) | 57 (≈ 0.124 µM) | 32 (≈ 0.0696 µM) | 0.2 (≈ 0.000435 µM) |
| COc1cc(OC)cc(N2CCN(C(=Nc3cc(CO)c(C)nc3OC)NO)CC2)c1 [Example 125, N-Hydroxy-N′-(5-hydroxymethyl-2-methoxy-6-methylpyridin-3-yl)-[4-(3,5-dimethoxyphenyl)piperazin-1-yl]carboxyimidamide] | – | – | – | – | – | 0.1 (≈ 0.000232 µM) | 0.1 (≈ 0.000232 µM) | 0.9 (≈ 0.00209 µM) | 0.8 (≈ 0.00185 µM) | 0.1 (≈ 0.000232 µM) |
| COc1nc2ccccc2nc1NC(=O)N1CCN(c2ccccc2C(C)C)CC1 [Example 40, 1-[(2-Methoxyquinoxalin-3-yl)aminocarbonyl]-4-(2-isoprop-ylphenyl)piperazine] | 370 (≈ 0.912 µM) | 810 (≈ 2 µM) | 410 (≈ 1.01 µM) | 1010 (≈ 2.49 µM) | 390 (≈ 0.962 µM) | – | – | – | – | – |
| 1-[(5,6-Dichloroethyl-2-methoxypyrazin-3-yl)aminocarbonyl]-4-(3,5-dimethoxyphenyl)piperazine [Example 35] | – | – | – | – | – | <0.1 | 0.1 | 0.1 | 0.7 | 0.1 |
| COc1cc(C)c(C)cc1N=C(NO)N1CCN(c2cc(C)cc(C)c2)CC1 [Example 180, N-Hydroxy-N′-(4,5-dimethyl-2-methoxyphenyl-1-yl)-[4-(3,5-dimethylphenyl)piperazin-1-yl]carboxyimidamide] | – | – | – | – | – | 310 (≈ 0.81 µM) | 240 (≈ 0.627 µM) | 280 (≈ 0.732 µM) | 160 (≈ 0.418 µM) | 160 (≈ 0.418 µM) |
| COc1cc(OC)cc(N2CCN(C(=O)N(C)c3nc4ccccc4nc3OC)CC2)c1 [Example 53, 1-[(2-Methoxyquinoxalin-3-yl) N-methylaminocarbonyl]-4-(3,5-dimethoxyphenyl)piperazine] | 930 (≈ 2.13 µM) | 270 (≈ 0.617 µM) | 170 (≈ 0.389 µM) | 210 (≈ 0.48 µM) | 50 (≈ 0.114 µM) | – | – | – | – | – |
| COc1cc(OC)cc(N2CCN(C(=O)Nc3cc4ccccc4cc3OC)CC2)c1 [Example 87, 1-[(2-Methoxynaphth-3-yl)aminocarbonyl]-4-(3,5-dimethoxyphenyl)piperazine] | 660 (≈ 1.57 µM) | 80 (≈ 0.19 µM) | 10 (≈ 0.0237 µM) | 30 (≈ 0.0712 µM) | 8 (≈ 0.019 µM) | – | – | – | – | – |
